Earlier results as cited in PMC12979414, “Ascending single-dose study of the safety, pharmacokinetics, and pharmacodynamics of CSTI-500, a novel monoamine triple reuptake inhibitor, first-in-human” (Psychopharmacology, 2025).
Read-outs that look alike come from different tables or passages of the source.

How the values were obtained:
[1] = parameters: method as in Zheng et al. [2015]; settings: multiple-ascending-dose study, healthy subjects; ref Zheng et al. [2015]
[2] = parameters: method as in Deest et al. [2021]; settings: PWS patients, 6 months, doses as low as 25 mg; ref Deest et al. [2021]
[3] = clinical trials for Parkinson's disease; ref Astrup et al. [2008]
[4] = PET occupancy study in healthy subjects, ref Learned et al. [2012]

CN1Cc2cc(-c3ccc(N)nn3)ccc2[C@H](c2ccc3ccccc3c2)C1 [BMS-820836]
SERT occupancy (SERT; 0.5 mg/d, near steady-state, healthy subjects, ref Zheng et al. [2015]): about 80% | striatal DAT occupancies (DAT; 0.5-2 mg/d, healthy volunteers, ref Zheng et al. [2015]): 14-30% | clinical efficacy (0.25-2 mg/d, treatment-resistant MDD, two phase IIb trials, ref Bhagwagar et al. [2015]): no clinical superiority compared to duloxetine or escitalopram treatment | heart rate [1]: linear dose-related escalation in heart rate

N[C@@H]1CC[C@@H](c2ccc(Cl)c(Cl)c2)c2ccccc21 [SEP-225289]
SERT occupancy (SERT; single-doses 8-16 mg, healthy volunteers, all doses, ref DeLorenzo et al. [2011]): below 20% | DAT occupancies, average values (DAT; single-doses 8-16 mg, healthy volunteers, ref DeLorenzo et al. [2011]): 33-49% | depression symptoms (phase II study in MDD patients, 8 weeks of treatment, ref Sharma et al. [2015]): no reduction of depression symptoms

CN[C@H]1CC[C@@H](c2ccc(Cl)c(Cl)c2)c2ccccc21 [sertraline]
temper outbursts [2]: significantly reduced the temper outbursts

COC[C@@H]1[C@@H](c2ccc(Cl)c(Cl)c2)C[C@@H]2CC[C@H]1N2 [GSK372475]
SERT occupancy (SERT; [4]): 55-75% | DAT occupancy (DAT; [4]): 60-80% | efficacy and tolerability (1-2 mg/d, two 10-week phase II trials in MDD patients, ref Learned et al. [2012]): neither efficacious nor well-tolerated

CCOC[C@@H]1[C@@H](c2ccc(Cl)c(Cl)c2)C[C@@H]2CC[C@H]1N2C [tesofensine]
weight loss as an AE [3]: significant weight loss
